Values belong to the compound of their own block, whether it stands above or below them.
Legend:
[1] = Fluorescence Zn^2+ binding titration (Kd) in Ca^2+/EDTA/Zn^2+ buffers; conditions: 1 mM EDTA, 2 mM Ca^2+, 0–1 mM total Zn^2+
Protocol: The first Kd associated with Zn^2+ binding was measured by a fluorescence titration as described previously. Spectra of the fluorescence of the ligand of Formula 16 were acquired by exciting at 490 nm and collecting and integrating from 500–575 nm. The measurements were performed in triplicate to ensure accuracy of the Kd value.
(§1) The fluorescent increase and binding affinity for Zn^2+ were characterized using a dual-metal single-ligand buffer system comprised of 1 mM EDTA, 2 mM Ca^2+ (or Mg^2+ up to 5 mM) and 0–1 mM total Zn^2+. […] The quantum yield of Formula 16 increases by ˜3.7-fold, and the integrated emission increases 6.0-fold.
(§2) The Zn^2+ affinity of Formula 16 was determined by performing these measurements in triplicate using different Ca^2+/EDTA/Zn^2+ buffers (FIG. 3, left panel). The fluorescence response of the ligand of Formula 16 to the solutions was measured by excitation of the solution at 490 nm with 0.25 nm slit width and detecting the emission over 500 to 575 nm. The buffer solutions contained 100 mM KCl, 50 mM PIPES, pH=7.2 mM Ca2+, 1 mM EDTA and varying free Zn2+concentrations of 0, 0.172, 0.424, 0.787, 1.32, 2.11, 3.34, 5.60, 10.2, and 24.1 nM. […] The fluorescence response fits to a Hill coefficient of 1, consistent with the formation of a 1:1 ligand:Zn^2+ complex responsible for the enhancement.

[2] = Excitation maximum and extinction coefficient, free and upon Zn^2+ complexation; type: physicochemical; conditions: pH 7
Protocol: (§3) Absorption spectra were recorded on a Hewlett Packard 8453A diode array spectrophotometer under the control of a Pentium II-based PC running the Windows NT ChemStation software package, or a Cary 1E scanning spectrophotometer under the control of a Pentium PC running the manufacturer supplied software package. Spectra were routinely acquired at 25° C., maintained by a circulating water bath in 1 cm path length quartz cuvettes with a volume of 1.0 or 3.5 mL.
(§4) Under pseudo physiological conditions (50 mM PIPES, 100 mM KCl) at pH 7 in the presence of EDTA to scavenge advantageous metal ions, Formula 16 has a quantum yield of 0.25. The quantum yield increases to 0.92 in the presence of 25 μM Zn^2+. The excitation maximum of Formula 16 shifts from 498 nm (ε=36.8×10^3 M^−1cm^−1) to 490 nm (ε=44.9×10^3 M^−1cm^−1) upon Zn^2+ complexation. The slight hypsochromatic shift in the absorption wavelength is indicative of the coordination of the donor group (phenol) to Zn^2+. Since the phenol is incorporated in the π-system of the fluorophore, coordination to a metal would be expected to perturb the electronic structure of the system and produce a shift in the excitation wavelength. […] Under most conditions, cadmium concentrations are much lower than zinc concentrations in biological samples.

[3] = Quantum yield of fluorescence, metal free and Zn^2+ bound ligand; type: physicochemical; conditions: 50 mM PIPES, 100 mM KCl
Source text: Quantum yield, Φ, may be obtained by comparison of the integrated area of the corrected emission spectrum of the sample with that of a reference solution. A preferred reference solution is a solution of fluorescein in 0.1 N NaOH, quantum efficiency 0.95. The concentration of the reference is adjusted to match the absorbance, Abs, of the test sample. The quantum yields may be calculated using the following equation: […]
The quantum yields of fluorescence were obtained by comparison of the integrated area of the corrected emission spectrum of the sample with that of a solution of fluorescein in 0.1 N NaOH, quantum efficiency 0.95. The concentration of the reference was adjusted to match the absorbance of the test sample. The quantum efficiency of the metal free ligand was measured using dilute sample of Formula 16 dye (˜1×10^−6 M, Abs≦0.1) in 10 mM PIPES, 100 mM KCl and 50 μM EDTA, pH=7.0. The quantum efficiency of the metal bound ligand was measured using a dilute sample of Formula 16 (˜8×10^−7 M, Abs≦0.1) in 10 mM PIPES, 100 mM KCl and 100 μM ZnCl2, pH=7.0. Emission for Formula 16 was integrated from 496 to 600 nm with excitation at 492 nm. The quantum yields were calculated with the following equation.
as §4

[4] = Lactone formation under aqueous conditions; type: physicochemical; conditions: even at high [Zn^2+] (200 μM)
Protocol: Binding of the first Zn^2+ more efficiently interrupts the PET process and increases the band gap between the S0 and S1 energy levels. The Kd1 is lower than that of DPA because of the additional coordination by the phenolic oxygen. […] (200 μM). These conclusions are preliminary and are not intended to limit the scope of the invention in any way.

[5] = Fluorescence response to other metal ions
Protocol: (§5) Fluorescence spectra were recorded on a Hitachi F-3010 spectrofluorimeter under the control of a Pentium-based PC running the SpectraCalc software package. Excitation was provided by a 150 W Xe lamp (Ushio Inc.) operating at a current of 5 A. All spectra were normalized for excitation intensity via a rhodamine quantum counter, and emission spectra were normalized by the manufacturer-supplied correction curves. Spectra were routinely acquired at 25° C., maintained by a circulating water bath in 1 cm×1 cm quartz cuvettes using 3 nm slit widths and a 240 nm/min scan speed. Fluorescence emission measurements were also acquired in a 1 cm×1 cm quartz cell using a Spex Fluorolog-2 instrument with 1 nm bandwidth slits. All spectra were corrected for emission intensity using the manufacturer-supplied photomultiplier curves. Spectra were routinely acquired at 25° C., maintained by a circulating water bath.
as §4

[6] = pH dependent fluorescence (apparent fluorescence pKa); type: physicochemical
Protocol: The apparent fluorescence pKa was measured by plotting the integrated area of the emission spectrum against the pH recorded from pH=12.5–2.5. A 1 μM solution of the ligand of Formula 16 (10 mLs) containing ˜1 mM KOH and 100 mM KCl was adjusted to pH 12.5 and the UV-vis and fluorescence spectra were recorded. The pH was lowered in steps of ΔpH=0.5 with the addition of appropriate amounts of 6 N, 2 N, 0.5 N, 1 N, 0.1 N and 0.01 N HCl recording the absorption and emission spectra at each pH interval. The volume of the solution was controlled so the overall change in volume was <2%. Emission for the fluorescein-based ligand of […] was integrated from 500 to 700 nm. The resulting integrated emission areas were normalized, plotted against pH, and fit with the following nonlinear equation to calculate the pKa values. In the equation, ΔF1max and ΔF2max are the maximum fluorescence changes associated with the corresponding pKa values at the pH at which the maximum occurs.
The fluorescence of the Formula 16 ligand is enhanced by protons. […] At high pH, the magnitude of Zn^2+-induced fluorescent enhancement is more dramatic, increasing over 200-fold at pH 12.

[7] = test system: intracellular Zn^2+ in HeLa cells; assay: Detection of intracellular Zn^2+ by fluorescence microscopy; type: cell-based
Protocol: (§6) The ability of a fluorescein-based ligand of Formula 16 to act as a sensor for intracellular Zn^2+ was tested in COS-7 (FIG. 5) and HeLa cells (FIG. 6), using a Formula 16. Both cell types were treated with 5 μM of the fluorescein-based ligand of Formula 16 for one hour at 37° C. […] Similar observations have been made using quinoline-based Zn^2+ probes in undifferentiated mammalian cells.
(§7) Intracellular Zn^2+ concentrations were increased by incubating the cells with Zn^2+ in the presence of pyrithione, a Zn^2+ ionophore. […] Available Zn^2+ was decreased by treatment with the membrane permeable Zn^2+-chelator, TPEN.

[8] = test system: intracellular Zn^2+ in COS-7 cells; assay: as above; type: cell-based
Protocol: as §6, §7

[9] = Absorption titration, second Zn^2+ binding event (Kd2); conditions: physiologically relevant pH
Protocol: as §3
The binding of Zn^2+ by a fluorescein-based ligand of Formula 16 is accompanied by changes in the absortion spectra. […] Addition of greater than one equivalent of Zn^2+ produces small changes in the absorption spectra of the ligand. The change fits to a Kd2 of 10±2 μM (486 nm), and decreases to 7.5±2.5 μM (508 nm).

[10] = Fluorescence response to Zn^2+
Protocol: as §5, with “bath. […]” for “bath.”
The fluorescence of the Formula 16 ligand is enhanced by protons. […]
Under pseudo physiological conditions (50 mM PIPES, 100 mM KCl) at pH 7 in the presence of EDTA to scavenge advantageous metal ions, Formula 57 has a quantum yield of 0.06. […] The fluorescence of Formula 57 also appears to be pH dependent. These fluorescence results are preliminary and are not intended to limit the scope of the invention in any way.

[11] = Zn^2+ affinity of reference chelator complexes; type: binding; conditions: pH 7
Protocol: as §1
as §2, with “nM. The measurements indicate that Formula 16 has a Kd of 0.5±0.1 nM (mean ±esd), obtained by a hyperbolic fit to the plot of the area under each fluorescence peak versus the Zn2+ concentration at which it was measured (FIG. 3, right panel).” for “nM.”

[12] = pH 7, in the presence of EDTA (metal free)
[13] = fit of integrated emission versus pH, 100 mM KCl

- increase of integrated emission on Zn^2+ binding [1]: 6.0 fold
- increase of quantum yield on Zn^2+ binding [1]: ~3.7 fold
- excitation maximum ([2]; before Zn^2+ complexation): 498 nm
- ε at excitation maximum ([2]; before Zn^2+ complexation): 36800 M⁻¹ cm⁻¹
- excitation maximum ([2]; upon Zn^2+ complexation): 490 nm
- ε at excitation maximum ([2]; upon Zn^2+ complexation): 44900 M⁻¹ cm⁻¹
- quantum yield ([3]; pH 7, in the presence of 25 μM Zn^2+): 0.92
- quantum yield [3, 12]: 0.25
- lactone formation [4]: no lactone formation
- pH of maximum fluorescence [6]: ~5.5
- apparent pKa,1 [6, 13]: 3.9
- apparent pKa,2 [6, 13]: 9.4
- fluorescence at high pH ([6]; pH>12): almost completely quenched
SMILES: O=C1OC2(c3ccccc31)c1ccc(O)c(CN(Cc3ccccn3)Cc3ccccn3)c1Oc1c2ccc(O)c1CN(Cc1ccccn1)Cc1ccccn1 [Formula 16]
- change in fluorescence intensity ([5]; Ca^2+): no measurable change in intensity
- effect on fluorescence ([5]; Cd^2+): increase in fluorescence
- effect on fluorescence ([5]; Co^2+): quench fluorescence
- effect on fluorescence ([5]; Cu^2+): quench fluorescence
- effect on fluorescence ([5]; Fe^2+): quench fluorescence
- change in fluorescence intensity ([5]; Mg^2+): no measurable change in intensity
- effect on fluorescence ([5]; Mn^2+): quench fluorescence
- effect on fluorescence ([5]; Ni^2+): quench fluorescence
- fluorescent staining of cells ([7]; 5 μM ligand, one hour at 37° C.): bright fluorescent staining
- fluorescent signal after Zn^2+ chelation ([7]; TPEN): decreased the fluorescent signal
- fluorescent signal after raising intracellular Zn^2+ ([7]; Zn^2+ with pyrithione): increase in the fluorescent signal
- fluorescent staining of cells ([8]; 5 μM ligand, one hour at 37° C., particularly perinuclear region (Golgi)): bright fluorescent staining
- fluorescent signal after Zn^2+ chelation ([8]; TPEN): decreased the fluorescent signal
- fluorescent signal after raising intracellular Zn^2+ ([8]; Zn^2+ with pyrithione): increase in the fluorescent signal
- fluorescence change at the second binding event [9]: not associated with a measurable change in fluorescence
- selectivity of the fluorescence response ([10]; compared with other metal ions): Zn^2+ selective
- Zn^2+-induced fluorescent enhancement ([10]; pH 12): over 200 fold

- excitation maximum ([2]; upon Zn^2+ complexation): 507 nm
- ε at excitation maximum ([2]; upon Zn^2+ complexation): 84000 M⁻¹ cm⁻¹
- quantum yield [3, 12]: 0.39
- quantum yield ([3]; pH 7, in the presence of Zn^2+ (concentration not given)): 0.87
SMILES: O=C1OC2(c3ccccc31)c1cc(Cl)c(O)c(CN(Cc3ccccn3)Cc3ccccn3)c1Oc1c2cc(Cl)c(O)c1CN(Cc1ccccn1)Cc1ccccn1 [Formula 31]

SMILES: [Zn+2].c1ccc(CNCc2ccccn2)nc1 [[Zn(DPA)]^2+]
- weaker binding than the ligand of Formula 16 [11]: approximately 2 orders of magnitude

Reference: patent US7160732B2, “Fluorescein-based metal sensors, and methods of making and using the same” (Massachusetts Institute of Technology, priority 2000, dated 2007)
